Experiments:
Parameters in all cases: key: “+” indicates that the compound exibits inhibitory activity; “−” indicates that low or no inhibitory activity was observed
A549 cells [1] = assay: Cell proliferation assay, photographic image analysis of proliferation, apoptosis and death (PAD assay), A549; format: cell-based; details: 6 concentrations tested
Procedure, shortened: (§1)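 Cells grown in RPMI with 5% FBS (2,000/well) and dosed 24 h after plating with 6.3-fold dilutions in duplicate (master plate 500× final, top 10 mM stock). After 48 h at 37 °C, cells formamide-fixed and DAPI-stained. Image analysis counted live, apoptotic and dead cells.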

A549 cells [2] = assay: Non-photographic proliferation analysis (Promega Cell titer Aqueous), A549; format: cell-based; details: 6 concentrations tested
Experimental: (§2) A549 (ATCC# CCL-185), HeLa (ATCC# CCL-2), HCT116 (ATCC# CCL-247), and H1299 (ATCC# CRL-5803) cells were maintained in T175 flasks following the ATCC recommended media and handling procedures. Flasks reaching approximately 70% confluency were trypsinized and resuspended in RPMI media (Cell-Gro catalog number 10-040-CM) modified to contain 5% FBS, 100 ug/mlPen/Strep (Cell-Gro catalog number 30-002-CL), and 0.3 mg/ml L-Glutamine (Cell-Gro catalog number 25-003-CL). A 20,000 cells/ml solution was made for plating. Cells were plated in black Packard 96 well plates by placing 100 μl per well (2,000 cells per well).
(§3) Compounds and additional media were added 24 hours after cell plating. A compound master plate was created with concentrations 500 times greater than the final concentration added to the cells. All compound testing was done in duplicate using 6.3 fold dilutions starting with 10 mM. All outside wells (and 4 internal wells) were DMSO controls. Taxol and at least one additional control were run on all plates. Three microliters of the compound master plate were added to deep well blocks containing 750 μl of RPMI media. One hundred microliters were transferred from the compound/media deep well blocks to the plated cells resulting in a 500 fold dilution of the compounds. Cells were grown at 37° C., 5% CO2 for 48 hours.
(§4) Some cell plates were treated with Promega Cell titer Aqueous 1 kit (promega—VWR catalog number G3580). In this case, 48 hours after the test compound were added, 100 μl of media were removed and 20 μl of cell titer reagent were added to all wells. Plates were incubated at 37° C. for 45 minutes prior to absorbance reads on the Wallac plate reader at 490 nm for 0.1 sec/well.

[3] = target: E3 (His-APC11/APC2-"APC") (Homo sapiens, UniProt Q9NYG5+Q9UJX6); assay: Plate-based E3 ligase assay (APC FLAG), auto-ubiquitination; format: biochemical; details: 8 concentrations tested
Procedure, shortened: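 His-APC11/APC2 auto-ubiquitination was run in casein-blocked nickel plates for 1 h at room temperature, with E1 at 5 ng/well, UbcH5c at 20 ng/well and APC at 100 ng/well. Buffer was 62.5 mM Tris pH 7.6, 3 mM MgCl2, 1 mM DTT, 2.5 mM ATP and Flag-ubiquitin at 100 ng/well. Detection used anti-Flag/HRP chemiluminescence, and IC50 was typically from 6 or 8 concentrations versus a DMSO control.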

HeLa cells [4] = assay: Cell proliferation assay, photographic image analysis of proliferation, apoptosis and death (PAD assay), HeLa; format: cell-based; details: 6 concentrations tested
Procedure, shortened: as §1

HeLa cells [5] = assay: Non-photographic proliferation analysis (Promega Cell titer Aqueous), HeLa; format: cell-based; details: 6 concentrations tested
Experimental: as §2, §3, §4

HCT116 cells = assay: Cell proliferation assay, photographic image analysis of proliferation, apoptosis and death (PAD assay), HCT116; format: cell-based; details: 6 concentrations tested
Experimental: as §2, §3
Cells to be analyzed by photography were fixed and stained. One hundred microliters of media were removed and 100 μl of 9.3% […] was added to each well. Plates were left on the benchtop for 45 minutes. A staining solution containing 1.55 μl of 1 mg/ml DAPI added to 18.75 ml PBS was warmed for 15 minutes at 37° C. The cells were aspirated prior to washing with 100 μl of PBS. Seventy microliters of PBS were aspirated and 170 μl of the DAPI solution were added to each well of fixed cells. Plates were left at room temperature for one hour then aspirated and washed twice with 100 μl of PBS. The stained cells were left at 4° C. for a minimum of 16 hours before photographic analysis with Array Scan II (Cellomics). Analysis of the photographic images to determine numbers of live cells (proliferation), apoptotic cells and dead cells, were according to the methods described in U.S. Provisional Patent Application Ser. No. 60/406,714, which incorporated herein in its entirety.

Sequence of E3 (His-APC11/APC2-"APC") (Q9NYG5 whole entry): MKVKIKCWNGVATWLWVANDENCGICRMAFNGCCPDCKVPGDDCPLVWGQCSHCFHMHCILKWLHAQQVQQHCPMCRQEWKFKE
Sequence of E3 (His-APC11/APC2-"APC") (Q9UJX6 whole entry): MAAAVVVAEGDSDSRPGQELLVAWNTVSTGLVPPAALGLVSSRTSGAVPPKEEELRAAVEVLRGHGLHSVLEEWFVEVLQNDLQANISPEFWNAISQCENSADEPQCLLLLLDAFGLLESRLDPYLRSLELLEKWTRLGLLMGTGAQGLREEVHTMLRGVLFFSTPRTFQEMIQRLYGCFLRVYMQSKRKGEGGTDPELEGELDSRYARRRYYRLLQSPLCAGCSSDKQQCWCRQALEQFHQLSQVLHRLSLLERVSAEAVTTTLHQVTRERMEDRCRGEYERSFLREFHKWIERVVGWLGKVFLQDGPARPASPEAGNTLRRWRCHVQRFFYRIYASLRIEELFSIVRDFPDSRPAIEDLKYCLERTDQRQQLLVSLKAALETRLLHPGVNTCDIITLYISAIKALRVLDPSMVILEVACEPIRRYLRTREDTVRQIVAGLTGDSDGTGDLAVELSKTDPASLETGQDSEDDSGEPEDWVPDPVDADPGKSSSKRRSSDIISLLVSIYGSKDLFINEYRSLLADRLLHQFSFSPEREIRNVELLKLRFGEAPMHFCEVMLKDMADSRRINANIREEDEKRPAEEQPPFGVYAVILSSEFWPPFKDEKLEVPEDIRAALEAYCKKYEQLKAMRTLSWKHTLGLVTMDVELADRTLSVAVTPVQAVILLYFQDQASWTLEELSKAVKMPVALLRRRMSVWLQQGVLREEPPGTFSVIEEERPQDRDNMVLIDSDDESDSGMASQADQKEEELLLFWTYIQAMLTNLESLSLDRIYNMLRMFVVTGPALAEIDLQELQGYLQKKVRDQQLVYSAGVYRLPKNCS

COc1ccc(NS(=O)(=O)c2cc(Cl)c(Oc3ccc([N+](=O)[O-])cc3Cl)c(Cl)c2)cc1 [Compound 208]
−: APC Flag 8 pt [3]
+: PAD Assay, A549 6 pt (A549 cells [1]) | Cell Titer-Aqueous, A549 6 pt (A549 cells [2]) | PAD Assay, HELA 6 pt (HeLa cells [4]) | Cell Titer-Aqueous, HELA 6 pt (HeLa cells [5])

O=[N+]([O-])c1ccc(Oc2c(Cl)cc(S(=O)(=O)Nc3ccccc3I)cc2Cl)c(Cl)c1 [Compound 209]
+: PAD Assay, A549 6 pt (A549 cells [1]) | Cell Titer-Aqueous, A549 6 pt (A549 cells [2]) | APC Flag 8 pt [3] | PAD Assay, HELA 6 pt (HeLa cells [4]) | Cell Titer-Aqueous, HELA 6 pt (HeLa cells [5])

O=[N+]([O-])c1ccc(Oc2c(Cl)cc(S(=O)(=O)Nc3cccc(Br)c3)cc2Cl)c(Cl)c1 [Example 159, N-(3-bromophenyl)-3,5-dichloro-4-(2-chloro-4-nitrophenoxy)benzenesulfonamide]
+: PAD Assay, A549 6 pt (A549 cells [1]) | Cell Titer-Aqueous, A549 6 pt (A549 cells [2]) | APC Flag 8 pt [3] | PAD Assay, HELA 6 pt (HeLa cells [4]) | Cell Titer-Aqueous, HELA 6 pt (HeLa cells [5])

Cc1cccc(C(C)C)c1NS(=O)(=O)c1cc(Cl)c(Oc2ccc([N+](=O)[O-])cc2Cl)c(Cl)c1 [Example 160, 3,5-dichloro-4-(2-chloro-4-nitrophenoxy)-N-(2-isopropyl-6-methylphenyl)benzene-sulfonamide]
+: PAD Assay, A549 6 pt (A549 cells [1]) | Cell Titer-Aqueous, A549 6 pt (A549 cells [2]) | APC Flag 8 pt [3] | PAD Assay, HELA 6 pt (HeLa cells [4]) | Cell Titer-Aqueous, HELA 6 pt (HeLa cells [5])

O=[N+]([O-])c1ccc(Oc2c(Cl)cc(S(=O)(=O)Nc3ccsc3)cc2Cl)c(Cl)c1 [Example 165, 3,5-dichloro-4-(2-chloro-4-nitrophenoxy)-N-3-thienylbenzenesulfonamide]
+: PAD Assay, A549 6 pt (A549 cells [1]) | Cell Titer-Aqueous, A549 6 pt (A549 cells [2]) | APC Flag 8 pt [3] | PAD Assay, HELA 6 pt (HeLa cells [4]) | Cell Titer-Aqueous, HELA 6 pt (HeLa cells [5])

O=[N+]([O-])c1ccc(Oc2c(Cl)cc(S(=O)(=O)Nc3cccc4cc[nH]c34)cc2Cl)c(Cl)c1 [Example 168, 3,5-dichloro-4-(2-chloro-4-nitrophenoxy)-N-1H-indol-7-ylbenzenesulfonamide]
+: PAD Assay, A549 6 pt (A549 cells [1]) | Cell Titer-Aqueous, A549 6 pt (A549 cells [2]) | APC Flag 8 pt [3] | PAD Assay, HELA 6 pt (HeLa cells [4]) | Cell Titer-Aqueous, HELA 6 pt (HeLa cells [5])

O=[N+]([O-])c1ccc(Oc2c(Cl)cc(S(=O)(=O)Nc3ccc4[nH]ccc4c3)cc2Cl)c(Cl)c1 [Example 174, 3,5-dichloro-4-(2-chloro-4-nitrophenoxy)-N-1H-indol-5-ylbenzenesulfonamide]
+: PAD Assay, A549 6 pt (A549 cells [1]) | Cell Titer-Aqueous, A549 6 pt (A549 cells [2]) | APC Flag 8 pt [3] | PAD Assay, HELA 6 pt (HeLa cells [4]) | Cell Titer-Aqueous, HELA 6 pt (HeLa cells [5])

N#Cc1ccc(NS(=O)(=O)c2cc(Cl)c(Oc3ccc([N+](=O)[O-])cc3Cl)c(Cl)c2)cc1 [Example 200, 3,5-dichloro-4-(2-chloro-4-nitrophenoxy)-N-(4-cyanophenyl)benzenesulfonamide]
+: PAD Assay, A549 6 pt (A549 cells [1]) | Cell Titer-Aqueous, A549 6 pt (A549 cells [2]) | APC Flag 8 pt [3] | PAD Assay, HELA 6 pt (HeLa cells [4]) | Cell Titer-Aqueous, HELA 6 pt (HeLa cells [5])

COc1ccc(NS(=O)(=O)c2cc(Cl)c(Oc3ccc([N+](=O)[O-])cc3Cl)c(Cl)c2)cc1Cl [Example 201, 3,5-dichloro-N-(3-chloro-4-methoxyphenyl)-4-(2-chloro-4-nitrophenoxy)benzene-sulfonamide]
+: PAD Assay, A549 6 pt (A549 cells [1]) | Cell Titer-Aqueous, A549 6 pt (A549 cells [2]) | APC Flag 8 pt [3] | PAD Assay, HELA 6 pt (HeLa cells [4]) | Cell Titer-Aqueous, HELA 6 pt (HeLa cells [5])

COc1cc(NS(=O)(=O)c2cc(Cl)c(Oc3ccc([N+](=O)[O-])cc3Cl)c(Cl)c2)c(OC)cc1Cl [Example 202, 3,5-dichloro-N-(4-chloro-2,5-dimethoxy-phenyl)-4-(2-chloro-4-nitrophenoxy)benzene-sulfonamide]
−: APC Flag 8 pt [3]
+: PAD Assay, A549 6 pt (A549 cells [1]) | Cell Titer-Aqueous, A549 6 pt (A549 cells [2]) | PAD Assay, HELA 6 pt (HeLa cells [4]) | Cell Titer-Aqueous, HELA 6 pt (HeLa cells [5])

N=C(NS(=O)(=O)c1cc(Cl)c(Oc2ccc([N+](=O)[O-])cc2Cl)c(Cl)c1)c1cccc([N+](=O)[O-])c1 [Example 210, N-{[3,5-dichloro-4-(2-chloro-4-nitro-phenoxy)phenyl]sulfonyl}-3-nitrobenzene-carboximidamide]
+: PAD Assay, A549 6 pt (A549 cells [1]) | Cell Titer-Aqueous, A549 6 pt (A549 cells [2]) | APC Flag 8 pt [3] | PAD Assay, HELA 6 pt (HeLa cells [4]) | Cell Titer-Aqueous, HELA 6 pt (HeLa cells [5])

O=C1Nc2cc(NS(=O)(=O)c3cc(Cl)c(Oc4ccc([N+](=O)[O-])cc4Cl)c(Cl)c3)ccc2OC1(F)F [Example 214, 3,5-dichloro-4-(2-chloro-4-nitrophenoxy)-N-(2,2-difluoro-3-oxo-3,4-dihydro-2H-1,4-benzoxazin-6-yl)benzenesulfonamide]
−: Cell Titer-Aqueous, A549 6 pt (A549 cells [2])
+: PAD Assay, A549 6 pt (A549 cells [1]) | APC Flag 8 pt [3] | PAD Assay, HELA 6 pt (HeLa cells [4]) | Cell Titer-Aqueous, HELA 6 pt (HeLa cells [5])

O=[N+]([O-])c1ccc(Oc2c(Cl)cc(S(=O)(=O)Nc3ccc(F)cc3I)cc2Cl)c(Cl)c1 [Example 226, 3,5-dichloro-4-(2-chloro-4-nitrophenoxy)-N-(4-fluoro-2-iodophenyl)benzenesulfonamide]
+: PAD Assay, A549 6 pt (A549 cells [1]) | APC Flag 8 pt [3] | PAD Assay, HCT116 6 pt (HCT116 cells) | PAD Assay, HELA 6 pt (HeLa cells [4])

O=[N+]([O-])c1ccc(Oc2c(Cl)cc(S(=O)(=O)Nc3ccccc3C(F)(F)F)cc2Cl)c(Cl)c1 [Example 230, 3,5-dichloro-4-(2-chloro-4-nitrophenoxy)-N-[2-(trifluoromethyl)phenyl]benzene-sulfonamide]
+: PAD Assay, A549 6 pt (A549 cells [1]) | APC Flag 8 pt [3] | PAD Assay, HCT116 6 pt (HCT116 cells) | PAD Assay, HELA 6 pt (HeLa cells [4])

Cc1ccc(NS(=O)(=O)c2cc(Cl)c(Oc3ccc([N+](=O)[O-])cc3Cl)c(Cl)c2)c(Cl)c1 [Example 251, 3,5-dichloro-N-(2-chloro-4-methylphenyl)-4-(2-chloro-4-nitrophenoxy)benzene-sulfonamide]
+: PAD Assay, A549 6 pt (A549 cells [1]) | APC Flag 8 pt [3] | PAD Assay, HCT116 6 pt (HCT116 cells) | PAD Assay, HELA 6 pt (HeLa cells [4])

Reference: patent US7915293B2, “Ubiquitin ligase inhibitors” (Rigel Pharmaceuticals, Inc., priority 2003, dated 2011)
